Reference: article PMC5071874, “Universal stress protein Rv2624c alters abundance of arginine and enhances intracellular survival by ATP binding in mycobacteria” (Scientific Reports, 2016)

Biological target: Rv2624c (Mycobacterium tuberculosis, UniProt P9WFD5)
Sequence (P9WFD5 whole entry): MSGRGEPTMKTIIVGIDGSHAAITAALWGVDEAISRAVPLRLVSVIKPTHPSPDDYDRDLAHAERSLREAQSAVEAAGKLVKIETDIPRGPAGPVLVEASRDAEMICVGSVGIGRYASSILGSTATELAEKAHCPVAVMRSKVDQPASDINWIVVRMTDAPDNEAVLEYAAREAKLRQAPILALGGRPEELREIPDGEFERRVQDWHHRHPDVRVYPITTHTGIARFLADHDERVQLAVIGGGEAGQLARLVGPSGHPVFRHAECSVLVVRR

Nc1ncnc2c1ncn2[C@@H]1O[C@H](COP(=O)(O)OP(=O)(O)O)[C@@H](O)[C@H]1O [ADP]
HPLC of nucleotides extracted by boiling purified protein: purified Rv2624c proteins from E. coli bound tightly to ATP and ADP after extensive purification steps

Nc1ncnc2c1ncn2[C@@H]1O[C@H](COP(=O)(O)OP(=O)(O)OP(=O)(O)O)[C@@H](O)[C@H]1O [ATP]
HPLC of nucleotides extracted by boiling purified protein: purified Rv2624c proteins from E. coli bound tightly to ATP and ADP after extensive purification steps
